Results: patent publication US20100144729A1, “COUMARIN DERIVATIVES” (priority 2007, published 2010)
One block for each molecule: values may come before it.

What was measured:
[1] = biological target: T1, S1P1 (EDG-1) (Homo sapiens, UniProt P21453); assay: GPCR activation assay measuring GTP [γ-35S] binding to membranes from CHO cells expressing human EDG receptors (S1P1); format: biochemical; conditions: CHO cell membranes expressing human EDG-1, read-out: S1P-1 EC50
T1 construct: c-myc (N); expressed in transfected cells; homogenized membranes
Procedure: A.1 In Vitro: GPCR Activation Assay Measuring GTP [γ-^35S] Binding to Membranes Prepared From CHO Cells Expressing Human EDG Receptors
S1P1 (EDG-1) GTP [γ-^35S] binding assay: Homogenized membranes are prepared from CHO cell clones stably expressing a human EDG-1 N-terminal c-myc tag. Cells are grown in suspension in two 850 cm^2 roller bottles for three or fours days before harvesting. The cells are centrifuged down, washed once with cold PBS, and resuspended in ≦20 ml of Buffer A (20 mM HEPES, pH 7.4, 10 mM EDTA, EDTA-free complete protease inhibitor cocktail [1 tablet/25 ml]). The cell suspension is homogenized on ice, using a Polytron homogenizer at 30000 rpm at three intervals of 15 seconds each. The homogenate is first centrifuged at 2000 rpm on a tabletop low speed centrifuge for 10 minutes. The supernatant, after passing through a cell strainer, is then re-centrifuged at 50,000×g for 25 minutes at 4° C. The pellet is resuspended into buffer B (15% glycerol, 20 mM HEPES, pH 7.4, 0.1 mM EDTA, EDTA-free complete protease inhibitor cocktail [1 tablet/10 ml]). Protein concentration of the preparation is determined using the BCA Protein Assay kit (Pierce) using BSA as standard. The membranes are aliquoted and kept frozen at −80° C.
Solutions of test compounds ranging from 10 mM to 0.01 nM are prepared in DMSO. S1P is diluted in 4% BSA solution as positive controls. The desired amount of membrane preparation is diluted with ice-cold assay buffer (20 mM HEPES, pH 7.4, 100 mM NaCl, 10 mM MgCl2, 0.1% Fatty acid-free BSA, 5 μM GDP) and vortexed well. 2 μl or less of compound is distributed into each well of a round-bottom 96-well polystyrene assay plate, followed by addition of 100 μl of diluted membranes (3-10 μg/well) and kept on ice until the addition of hot GTPγS. [^35S]-GTPγS is diluted 1:1000 (v/v) with cold assay buffer and 100 μl is added into each well. The reaction is carried out at room temperature for 90 minutes before the membranes are harvested onto Perkin-Elmer Unifilter® GF/B-96 filter plate using a Packard Filtermate Harvester. After several washes with wash buffer (20 mM HEPES, pH 7.4, 100 mM NaCl, 10 mM MgCl2), and a rinse with 95% ethanol, the filter is dried in a 37° C. oven for 30 minutes. MicroScint-20 is added and the plate sealed for scintillation counting on TopCount. EC50 values are obtained by fitting the GTP [γ-^35S] binding curves (raw data) with the dose response curve-fitting tool of GraphPad Prism. Six or twelve different concentrations are used to generate a concentration response curve (using three data points per concentration).

[2] = biological target: T2, S1P-1 (Homo sapiens, UniProt P21453); assay: FLIPR calcium flux assay, S1P-1; format: cell-based; conditions: CHO cells expressing S1P receptor
T2 construct: expressed in transfected cells; host or cells: CHO cells under G418 selection
Procedure: (§1) Compounds of the invention are tested for agonist activity on S1P1, S1P3, S1P5, and […] with a FLIPR calcium flux assay. Briefly, CHO cells expressing an S1P receptor are maintained in F-12K medium (ATCC), containing 5% FBS, with 500 ug/ml of G418. Prior to the assay, the cells are plated in 384 black clear bottom plates at the density of 10,000 cells/well/25 ? l in the medium of F-12K containing 1% FBS. The second day, the cells are washed three times (25 μl/each) with washing buffer. About 25 μl of dye are added to each well and incubated for 1 hour at 37° C. and 5% CO2. The cells are then washed four times with washing buffer (25 μl/each). The calcium flux is assayed after adding 25 μl of SEW2871 (published by Rosen et al., used as reference) solution to each well of cells. The same assay is performed with cells expressing each of the different S1P receptors. Titration in the FLIPR calcium flux assay is recorded over a 3-minute interval, and quantitated as maximal peak height percentage response relative to S1P-1 activation. The compounds of the invention are active in this assay at a concentration of from 10^−12 and 3.10^−[…]. For example example 13 as an EC50 92 nm for S1P-1 and an EC50>1 um for all the other isoforms (S1P-2, S1P-3, S1P-4, S1P-5).

[3] = biological target: T3, S1P-4 (Homo sapiens, UniProt O95977); assay: FLIPR calcium flux assay, S1P-4; format: cell-based; conditions: CHO cells expressing S1P receptor
T3 construct: expressed in transfected cells; host or cells: CHO cells under G418 selection
T3 sequence (O95977 1-384): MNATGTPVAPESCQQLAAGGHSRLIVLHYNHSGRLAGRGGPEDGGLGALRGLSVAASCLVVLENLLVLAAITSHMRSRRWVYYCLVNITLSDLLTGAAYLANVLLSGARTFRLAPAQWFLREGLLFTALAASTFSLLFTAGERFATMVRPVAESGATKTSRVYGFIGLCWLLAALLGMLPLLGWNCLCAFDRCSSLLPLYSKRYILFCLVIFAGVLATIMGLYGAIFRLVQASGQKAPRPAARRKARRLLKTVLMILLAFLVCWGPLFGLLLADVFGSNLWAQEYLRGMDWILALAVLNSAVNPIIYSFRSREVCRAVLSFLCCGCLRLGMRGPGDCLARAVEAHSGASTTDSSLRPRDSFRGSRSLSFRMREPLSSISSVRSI
Procedure: as §1

[4] = biological target: T4, S1P-3 (Homo sapiens, UniProt Q99500); assay: FLIPR calcium flux assay, S1P-3; format: cell-based; conditions: CHO cells expressing S1P receptor
T4 construct: expressed in transfected cells; host or cells: CHO cells under G418 selection
Procedure: as §1

[5] = biological target: T5, S1P-5 (Homo sapiens, UniProt Q9H228); assay: FLIPR calcium flux assay, S1P-5; format: cell-based; conditions: CHO cells expressing S1P receptor
T5 construct: expressed in transfected cells; host or cells: CHO cells under G418 selection
Procedure: as §1

[6] = biological target: T6, S1P-2 (Homo sapiens, UniProt O95136); assay: FLIPR calcium flux assay, S1P-2; format: cell-based; conditions: CHO cells expressing S1P receptor
T6 construct: expressed in transfected cells; host or cells: CHO cells under G418 selection
Procedure: as §1

T1 sequence (P21453 whole entry): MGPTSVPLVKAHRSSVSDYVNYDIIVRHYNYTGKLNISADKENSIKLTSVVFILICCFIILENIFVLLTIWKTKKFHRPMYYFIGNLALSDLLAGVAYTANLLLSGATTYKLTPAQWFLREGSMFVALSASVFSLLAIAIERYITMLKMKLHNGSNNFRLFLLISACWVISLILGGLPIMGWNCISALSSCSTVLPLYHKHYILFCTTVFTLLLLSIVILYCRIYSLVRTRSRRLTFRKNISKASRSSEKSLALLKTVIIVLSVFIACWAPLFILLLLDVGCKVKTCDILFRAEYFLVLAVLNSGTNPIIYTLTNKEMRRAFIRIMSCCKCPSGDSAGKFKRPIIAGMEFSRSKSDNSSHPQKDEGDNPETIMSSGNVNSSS
T2 sequence (P21453 whole entry): as above
T6 sequence (O95136 whole entry): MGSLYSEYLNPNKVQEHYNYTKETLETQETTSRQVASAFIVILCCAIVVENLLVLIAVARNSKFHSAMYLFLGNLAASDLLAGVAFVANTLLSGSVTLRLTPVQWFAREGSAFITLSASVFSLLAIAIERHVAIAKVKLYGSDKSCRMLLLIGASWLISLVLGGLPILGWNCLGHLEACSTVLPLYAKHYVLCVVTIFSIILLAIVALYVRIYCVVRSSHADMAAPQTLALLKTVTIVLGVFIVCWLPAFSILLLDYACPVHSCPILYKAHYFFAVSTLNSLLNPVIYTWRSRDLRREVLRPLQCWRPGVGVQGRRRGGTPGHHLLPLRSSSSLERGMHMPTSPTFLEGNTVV
T4 sequence (Q99500 whole entry): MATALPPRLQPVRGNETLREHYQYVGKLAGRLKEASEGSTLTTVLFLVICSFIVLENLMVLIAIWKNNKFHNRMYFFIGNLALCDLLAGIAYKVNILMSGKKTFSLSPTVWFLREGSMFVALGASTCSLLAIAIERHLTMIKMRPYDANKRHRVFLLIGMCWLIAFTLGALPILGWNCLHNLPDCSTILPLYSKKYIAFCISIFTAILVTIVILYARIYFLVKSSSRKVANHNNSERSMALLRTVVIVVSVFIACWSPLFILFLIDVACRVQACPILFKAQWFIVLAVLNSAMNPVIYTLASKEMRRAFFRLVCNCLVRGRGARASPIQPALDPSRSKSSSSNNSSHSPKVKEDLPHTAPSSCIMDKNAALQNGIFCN
T5 sequence (Q9H228 whole entry): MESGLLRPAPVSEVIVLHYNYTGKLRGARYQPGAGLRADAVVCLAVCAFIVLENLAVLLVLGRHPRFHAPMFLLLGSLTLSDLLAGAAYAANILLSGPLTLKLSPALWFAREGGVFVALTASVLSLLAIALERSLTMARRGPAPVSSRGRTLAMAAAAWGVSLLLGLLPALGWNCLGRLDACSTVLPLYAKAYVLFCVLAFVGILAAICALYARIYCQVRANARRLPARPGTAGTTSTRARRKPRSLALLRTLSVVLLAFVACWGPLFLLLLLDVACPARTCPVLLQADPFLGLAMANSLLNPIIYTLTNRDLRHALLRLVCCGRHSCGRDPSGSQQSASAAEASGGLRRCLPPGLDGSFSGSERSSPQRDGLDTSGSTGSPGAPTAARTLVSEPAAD

Structure (SMILES): CCc1c(OC)ccc2cc(C(=O)Nc3ccc([C@H]4CCCN4)cc3C)c(=O)oc12 [Example 62]
- EC50 [1]: 0.5 nM

Structure (SMILES): COc1ccc2cc(C(=O)Nc3ccc(C4CNCCO4)cc3)c(=O)oc2c1OC(C)C (single isomer, unassigned) [Example 41]
- EC50 [1]: 2.9 nM

Structure (SMILES): COc1ccc2cc(C(=O)Nc3ccc([C@H]4COCCN4)c(C)c3)c(=O)oc2c1OC(C)C [Example 90]
- EC50 [1]: 6.2 nM

Structure (SMILES): CCCc1c(OC)ccc2cc(C(=O)Nc3ccc(C4CCCN4C)cc3)c(=O)oc12 (racemic) [Example 13]
- EC50 [2]: 92 nM
- EC50 [3]: > 1000 nM
- EC50 [4]: > 1000 nM
- EC50 [5]: > 1000 nM
- EC50 [6]: > 1000 nM

Structure (SMILES): Cc1cc([C@H]2CCCN2)ccc1NC(=O)c1cc2ccc(OC(C)C)c(OC(C)C)c2oc1=O [Example 82]
- EC50 [1]: 2.4 nM

Structure (SMILES): CCOc1ccc2cc(C(=O)Nc3ccc([C@H]4CCCN4)cc3F)c(=O)oc2c1OCC [Example 89]
- EC50 [1]: 12.8 nM

Structure (SMILES): CCOc1c(OC)ccc2cc(C(=O)Nc3ccc([C@H]4CCCN4)cc3)c(=O)oc12 [Example 8]
- EC50 [1]: 7.5 nM

Structure (SMILES): COc1ccc2cc(C(=O)Nc3ccc(C4CCCCN4)cc3)c(=O)oc2c1OC(C)C (single isomer, unassigned) [Example 23]
- EC50 [1]: 75.5 nM

Structure (SMILES): COc1ccc2cc(C(=O)Nc3cccc([C@H]4COCCN4)c3)c(=O)oc2c1OC(C)C [Example 96]
- EC50 [1]: 2.8 nM

Structure (SMILES): COc1ccc2cc(C(=O)Nc3ccc([C@H]4CCCN4)c(F)c3)c(=O)oc2c1C [Example 72]
- EC50 [1]: 1.8 nM

Further lines, results first:

- EC50 [1]: 0.2 nM
Structure (SMILES): CCCc1c(OC)ccc2cc(C(=O)Nc3ccc([C@H]4COCCN4)cc3)c(=O)oc12 [Example 27]

- EC50 [1]: 0.2 nM
Structure (SMILES): CCc1c(OC)ccc2cc(C(=O)Nc3ccc(C4CNCCN4)cc3)c(=O)oc12 (single isomer, unassigned) [Example 44]

- EC50 [1]: 0.1 nM
Structure (SMILES): CCCc1c(OC)ccc2cc(C(=O)Nc3ccc(C4CNCCN4)cc3)c(=O)oc12 (racemic) [Example 43]

- EC50 [1]: 4.6 nM
Structure (SMILES): CCOc1c(OC)ccc2cc(C(=O)Nc3ccc(C4CNCCN4)cc3)c(=O)oc12 (single isomer, unassigned) [Example 53]

- EC50 [1]: 0.1 nM
Structure (SMILES): CCCc1c(OC)ccc2cc(C(=O)Nc3ccc(C4CCCN4)cc3)c(=O)oc12 (stereo not shown) [Example 1, 7-Methoxy-2-oxo-8-propyl-2H-chromene-3-carboxylic acid (4-pyrrolidin-2-yl-phenyl)-amide]
